Test results from ChEMBL document CHEMBL1795250, “Synthesis and base-pairing properties of C-nucleotides having 1-substituted 1H-1,2,3-triazoles” (Bioorg Med Chem Lett, 2009).

Columns and labels:
Type in all cases: nucleic-acid assay
[1] = test system: Nucleic Acid; test: Stabilization of 5'-AGAGAGATAGAAAAA-3' ssDNA sequence assessed as melting temperature at pH7 using 100 mM NaCl
[2] = test system: Nucleic Acid; test: Stabilization of 5'-AGAGAGAGAGAAAAA-3' ssDNA sequence assessed as melting temperature at pH7 using 100 mM NaCl
[3] = test system: Nucleic Acid; test: Stabilization of 5'-AGAGAGAAAGAAAAA-3' ssDNA sequence assessed as melting temperature at pH7 using 100 mM NaCl
[4] = test system: Nucleic Acid; test: Stabilization of 5'-AGAGAGACAGAAAAA-3' ssDNA sequence assessed as melting temperature at pH7 using 100 mM NaCl

SMILES	Tm [1] [°C]	Tm [2] [°C]	Tm [3] [°C]	Tm [4] [°C]
Cc1cn([C@H]2C[C@H](OP(=O)(O)OC[C@H]3O[C@@H](n4cc(C)c(=O)[nH]c4=O)C[C@@H]3OP(=O)(O)OC[C@H]3O[C@@H](n4cc(C)c(N)nc4=O)C[C@@H]3OP(=O)(O)OC[C@H]3O[C@@H](n4cc(C)c(=O)[nH]c4=O)C[C@@H]3OP(=O)(O)OC[C@H]3O[C@@H](n4cc(C)c(N)nc4=O)C[C@@H]3OP(=O)(O)OC[C@H]3O[C@@H](n4cc(C)c(=O)[nH]c4=O)C[C@@H]3O)[C@@H](COP(=O)(O)O[C@H]3C[C@H](n4cc(C)c(=O)[nH]c4=O)O[C@@H]3COP(=O)(O)O[C@H]3C[C@H](c4cn(CCCCCCCCCCO)nn4)O[C@@H]3COP(=O)(O)O[C@H]3C[C@H](n4cc(C)c(=O)[nH]c4=O)O[C@@H]3COP(=O)(O)O[C@H]3C[C@H](n4cc(C)c(N)nc4=O)O[C@@H]3COP(=O)(O)O[C@H]3C[C@H](n4cc(C)c(=O)[nH]c4=O)O[C@@H]3COP(=O)(O)O[C@H]3C[C@H](n4cc(C)c(=O)[nH]c4=O)O[C@@H]3COP(=O)(O)O[C@H]3C[C@H](n4cc(C)c(=O)[nH]c4=O)O[C@@H]3COP(=O)(O)O[C@H]3C[C@H](n4cc(C)c(=O)[nH]c4=O)O[C@@H]3COP(=O)(O)O[C@H]3C[C@H](n4cc(C)c(=O)[nH]c4=O)O[C@@H]3CO)O2)c(=O)nc1N	39	39	35	39
Cc1cn([C@H]2C[C@H](OP(=O)(O)OC[C@H]3O[C@@H](n4cc(C)c(=O)[nH]c4=O)C[C@@H]3OP(=O)(O)OC[C@H]3O[C@@H](n4cc(C)c(N)nc4=O)C[C@@H]3OP(=O)(O)OC[C@H]3O[C@@H](n4cc(C)c(=O)[nH]c4=O)C[C@@H]3OP(=O)(O)OC[C@H]3O[C@@H](n4cc(C)c(N)nc4=O)C[C@@H]3OP(=O)(O)OC[C@H]3O[C@@H](n4cc(C)c(=O)[nH]c4=O)C[C@@H]3O)[C@@H](COP(=O)(O)O[C@H]3C[C@H](n4cc(C)c(=O)[nH]c4=O)O[C@@H]3COP(=O)(O)O[C@H]3C[C@H](c4cn(C5CCCCC5)nn4)O[C@@H]3COP(=O)(O)O[C@H]3C[C@H](n4cc(C)c(=O)[nH]c4=O)O[C@@H]3COP(=O)(O)O[C@H]3C[C@H](n4cc(C)c(N)nc4=O)O[C@@H]3COP(=O)(O)O[C@H]3C[C@H](n4cc(C)c(=O)[nH]c4=O)O[C@@H]3COP(=O)(O)O[C@H]3C[C@H](n4cc(C)c(=O)[nH]c4=O)O[C@@H]3COP(=O)(O)O[C@H]3C[C@H](n4cc(C)c(=O)[nH]c4=O)O[C@@H]3COP(=O)(O)O[C@H]3C[C@H](n4cc(C)c(=O)[nH]c4=O)O[C@@H]3COP(=O)(O)O[C@H]3C[C@H](n4cc(C)c(=O)[nH]c4=O)O[C@@H]3CO)O2)c(=O)nc1N	33	37	34	34
Cc1cn([C@H]2C[C@H](OP(=O)(O)OC[C@H]3O[C@@H](n4cc(C)c(=O)[nH]c4=O)C[C@@H]3OP(=O)(O)OC[C@H]3O[C@@H](n4cc(C)c(N)nc4=O)C[C@@H]3OP(=O)(O)OC[C@H]3O[C@@H](n4cc(C)c(=O)[nH]c4=O)C[C@@H]3OP(=O)(O)OC[C@H]3O[C@@H](n4cc(C)c(N)nc4=O)C[C@@H]3OP(=O)(O)OC[C@H]3O[C@@H](n4cc(C)c(=O)[nH]c4=O)C[C@@H]3O)[C@@H](COP(=O)(O)O[C@H]3C[C@H](n4cc(C)c(=O)[nH]c4=O)O[C@@H]3COP(=O)(O)O[C@H]3C[C@H](c4cn(Cc5ccccc5)nn4)O[C@@H]3COP(=O)(O)O[C@H]3C[C@H](n4cc(C)c(=O)[nH]c4=O)O[C@@H]3COP(=O)(O)O[C@H]3C[C@H](n4cc(C)c(N)nc4=O)O[C@@H]3COP(=O)(O)O[C@H]3C[C@H](n4cc(C)c(=O)[nH]c4=O)O[C@@H]3COP(=O)(O)O[C@H]3C[C@H](n4cc(C)c(=O)[nH]c4=O)O[C@@H]3COP(=O)(O)O[C@H]3C[C@H](n4cc(C)c(=O)[nH]c4=O)O[C@@H]3COP(=O)(O)O[C@H]3C[C@H](n4cc(C)c(=O)[nH]c4=O)O[C@@H]3COP(=O)(O)O[C@H]3C[C@H](n4cc(C)c(=O)[nH]c4=O)O[C@@H]3CO)O2)c(=O)nc1N	33	38	32	34
Cc1cn([C@H]2C[C@H](OP(=O)(O)OC[C@H]3O[C@@H](n4cc(C)c(=O)[nH]c4=O)C[C@@H]3OP(=O)(O)OC[C@H]3O[C@@H](n4cc(C)c(N)nc4=O)C[C@@H]3OP(=O)(O)OC[C@H]3O[C@@H](n4cc(C)c(=O)[nH]c4=O)C[C@@H]3OP(=O)(O)OC[C@H]3O[C@@H](n4cc(C)c(N)nc4=O)C[C@@H]3OP(=O)(O)OC[C@H]3O[C@@H](n4cc(C)c(=O)[nH]c4=O)C[C@@H]3O)[C@@H](COP(=O)(O)O[C@H]3C[C@H](n4cc(C)c(=O)[nH]c4=O)O[C@@H]3COP(=O)(O)O[C@H]3C[C@H](c4cn(C56CC7CC(CC(C7)C5)C6)nn4)O[C@@H]3COP(=O)(O)O[C@H]3C[C@H](n4cc(C)c(=O)[nH]c4=O)O[C@@H]3COP(=O)(O)O[C@H]3C[C@H](n4cc(C)c(N)nc4=O)O[C@@H]3COP(=O)(O)O[C@H]3C[C@H](n4cc(C)c(=O)[nH]c4=O)O[C@@H]3COP(=O)(O)O[C@H]3C[C@H](n4cc(C)c(=O)[nH]c4=O)O[C@@H]3COP(=O)(O)O[C@H]3C[C@H](n4cc(C)c(=O)[nH]c4=O)O[C@@H]3COP(=O)(O)O[C@H]3C[C@H](n4cc(C)c(=O)[nH]c4=O)O[C@@H]3COP(=O)(O)O[C@H]3C[C@H](n4cc(C)c(=O)[nH]c4=O)O[C@@H]3CO)O2)c(=O)nc1N	34	37	30	34
Cc1cn([C@H]2C[C@H](OP(=O)(O)OC[C@H]3O[C@@H](n4cc(C)c(=O)[nH]c4=O)C[C@@H]3OP(=O)(O)OC[C@H]3O[C@@H](n4cc(C)c(N)nc4=O)C[C@@H]3OP(=O)(O)OC[C@H]3O[C@@H](n4cc(C)c(=O)[nH]c4=O)C[C@@H]3OP(=O)(O)OC[C@H]3O[C@@H](n4cc(C)c(N)nc4=O)C[C@@H]3OP(=O)(O)OC[C@H]3O[C@@H](n4cc(C)c(=O)[nH]c4=O)C[C@@H]3O)[C@@H](COP(=O)(O)O[C@H]3C[C@H](n4cc(C)c(=O)[nH]c4=O)O[C@@H]3COP(=O)(O)O[C@H]3C[C@H](c4cn(CSc5ccccc5)nn4)O[C@@H]3COP(=O)(O)O[C@H]3C[C@H](n4cc(C)c(=O)[nH]c4=O)O[C@@H]3COP(=O)(O)O[C@H]3C[C@H](n4cc(C)c(N)nc4=O)O[C@@H]3COP(=O)(O)O[C@H]3C[C@H](n4cc(C)c(=O)[nH]c4=O)O[C@@H]3COP(=O)(O)O[C@H]3C[C@H](n4cc(C)c(=O)[nH]c4=O)O[C@@H]3COP(=O)(O)O[C@H]3C[C@H](n4cc(C)c(=O)[nH]c4=O)O[C@@H]3COP(=O)(O)O[C@H]3C[C@H](n4cc(C)c(=O)[nH]c4=O)O[C@@H]3COP(=O)(O)O[C@H]3C[C@H](n4cc(C)c(=O)[nH]c4=O)O[C@@H]3CO)O2)c(=O)nc1N	40	40	37	38

Continued, values first:

Tm [1] [°C]	Tm [2] [°C]	Tm [3] [°C]	Tm [4] [°C]	SMILES
31	32	32	29	C#C[C@H]1C[C@H](OP(=O)(O)OC[C@H]2O[C@@H](n3cc(C)c(=O)[nH]c3=O)C[C@@H]2OP(=O)(O)OC[C@H]2O[C@@H](n3cc(C)c(N)nc3=O)C[C@@H]2OP(=O)(O)OC[C@H]2O[C@@H](n3cc(C)c(=O)[nH]c3=O)C[C@@H]2OP(=O)(O)OC[C@H]2O[C@@H](n3cc(C)c(N)nc3=O)C[C@@H]2OP(=O)(O)OC[C@H]2O[C@@H](n3cc(C)c(=O)[nH]c3=O)C[C@@H]2OP(=O)(O)OC[C@H]2O[C@@H](n3cc(C)c(N)nc3=O)C[C@@H]2OP(=O)(O)OC[C@H]2O[C@@H](n3cc(C)c(=O)[nH]c3=O)C[C@@H]2O)[C@@H](COP(=O)(O)O[C@H]2C[C@H](n3cc(C)c(=O)[nH]c3=O)O[C@@H]2COP(=O)(O)O[C@H]2C[C@H](n3cc(C)c(N)nc3=O)O[C@@H]2COP(=O)(O)O[C@H]2C[C@H](n3cc(C)c(=O)[nH]c3=O)O[C@@H]2COP(=O)(O)O[C@H]2C[C@H](n3cc(C)c(=O)[nH]c3=O)O[C@@H]2COP(=O)(O)O[C@H]2C[C@H](n3cc(C)c(=O)[nH]c3=O)O[C@@H]2COP(=O)(O)O[C@H]2C[C@H](n3cc(C)c(=O)[nH]c3=O)O[C@@H]2COP(=O)(O)O[C@H]2C[C@H](n3cc(C)c(=O)[nH]c3=O)O[C@@H]2CO)O1
42	42	52	39	Cc1cn([C@H]2C[C@H](OP(=O)(O)OC[C@H]3O[C@@H](n4cc(C)c(=O)[nH]c4=O)C[C@@H]3OP(=O)(O)OC[C@H]3O[C@@H](n4cc(C)c(N)nc4=O)C[C@@H]3OP(=O)(O)OC[C@H]3O[C@@H](n4cc(C)c(=O)[nH]c4=O)C[C@@H]3O)[C@@H](COP(=O)(O)O[C@H]3C[C@H](n4cc(C)c(=O)[nH]c4=O)O[C@@H]3COP(=O)(O)O[C@H]3C[C@H](n4cc(C)c(N)nc4=O)O[C@@H]3COP(=O)(O)O[C@H]3C[C@H](n4cc(C)c(=O)[nH]c4=O)O[C@@H]3COP(=O)(O)O[C@H]3C[C@H](n4cc(C)c(=O)[nH]c4=O)O[C@@H]3COP(=O)(O)O[C@H]3C[C@H](n4cc(C)c(=O)[nH]c4=O)O[C@@H]3COP(=O)(O)O[C@H]3C[C@H](n4cc(C)c(N)nc4=O)O[C@@H]3COP(=O)(O)O[C@H]3C[C@H](n4cc(C)c(=O)[nH]c4=O)O[C@@H]3COP(=O)(O)O[C@H]3C[C@H](n4cc(C)c(=O)[nH]c4=O)O[C@@H]3COP(=O)(O)O[C@H]3C[C@H](n4cc(C)c(=O)[nH]c4=O)O[C@@H]3COP(=O)(O)O[C@H]3C[C@H](n4cc(C)c(=O)[nH]c4=O)O[C@@H]3COP(=O)(O)O[C@H]3C[C@H](n4cc(C)c(=O)[nH]c4=O)O[C@@H]3CO)O2)c(=O)nc1N
